{
  "source": "paper PMC6479946",
  "about": "(Molecules, 2019)",
  "test": "Pharmacokinetic study in rats after oral HAR and MEM alone and in combination (plasma, UPLC-MS/MS, non-compartmental)",
  "settings": "rat plasma, n = 8, mean ± SD",
  "procedure": "The analytes were separated on an ACQUITY UPLC BEH C18 column (2.1 mm × 50 mm, 1.7 μm, Waters, Milford, USA). […] The flow rate was 0.3 mL/min. The column and sample-tray temperature were kept at 40 °C and 4 °C, respectively. The injection volume was 5.0 μL using a partial loop with needle over fill mode.\nThe compound dependent parameters used for analysis were summarized in Supplementary materials Table S1.\nA rapid and convenient precipitation method was used to prepare the plasma samples. A 100 μL aliquot of plasma sample was spiked with 100 μL of IS solution and 300 μL of methanol in a 1.5 mL centrifuge tube; subsequently, the mixtures were vortex-mixed for 30.0 s and then centrifuged at 1.5 × 10^4× g for 10 min at 4 °C. A 100 μL aliquot of supernatant was combined with 25.0 μL of 0.1% formic acid water in a clean centrifuge tube and then vortex-mixed for 30 s. A 5.0 μL aliquot of mixture was injected into the UPLC-MS/MS system for analysis.\nFifty-six pathogen-free male adult rats were randomly divided into seven groups with eight rats in each group for pharmacokinetic study. […] One group was intragastrically administered with MEM hydrochloride 5.0 mg/kg dissolved in ultrapure water, namely, MEM group. […] The blood samples were immediately centrifuged at 4.0 × 10^3× g at […] for 10 min, and 100 μL of the supernatant plasma was transferred into another new 1.5 mL centrifuge tube and stored at −20 °C until UPLC-MS/MS analysis.\nAll standard curves and quantitative data were processed by Agilent Mass Hunter Quantitative Analysis Workstation Software. […] All the pharmacokinetic parameters were processed using the non-compartmental pharmacokinetics data analysis software program PK solutions 2.0^TM (Summit Research Services, USA). […] The AUC(0-t) was obtained by the linear/logarithmic trapezoidal rule, and the area under the plasma concentration versus time curve from zero to infinity (AUC(0-∞)) was calculated by means of the trapezoidal rule with extrapolation to infinity with a terminal elimination rate constant. The Pearson correlation coefficient analysis was processed by IBM SPSS Statistics Version 21. A statistical analysis was performed using analysis of variance with α = 0.05 as the minimal level of significance.",
  "key": {"[1]": {"settings": "HOL as metabolite after oral HAR 40.0 mg/kg + MEM 5.0 mg/kg (HAR-M + MEM)"}, "[2]": {"settings": "HOL as metabolite after oral HAR 40.0 mg/kg alone (HAR-M)"}, "[3]": {"settings": "HOL as metabolite after oral HAR 80.0 mg/kg + MEM 5.0 mg/kg (HAR-H + MEM)"}, "[4]": {"settings": "HOL as metabolite after oral HAR 80.0 mg/kg alone (HAR-H)"}},
  "note": "Marks after values point to notes of the source that are not given here.",
  "data": [
    {"substance": "harmol [HOL]", "values": [
      {"measurement": "AUC(0-t) of HOL", "setting": "[1]", "value": "35.5 ± 15.3", "unit": "ng·h/mL"},
      {"measurement": "AUC(0-∞) of HOL", "setting": "[1]", "value": "43.1 ± 21.9", "unit": "ng·h/mL"},
      {"measurement": "Cmax of HOL", "setting": "[1]", "value": "18.0 ± 5.95", "unit": "ng/mL"},
      {"measurement": "Ka of HOL", "setting": "[1]", "value": "1.98 ± 1.72", "unit": "h⁻¹"},
      {"measurement": "Ke of HOL", "setting": "[1]", "value": "0.312 ± 0.271", "unit": "h⁻¹"},
      {"measurement": "MRT of HOL", "setting": "[1]", "value": "5.52 ± 2.55", "unit": "h"},
      {"measurement": "T1/2a of HOL", "setting": "[1]", "value": "2.78 ± 4.59", "unit": "h"},
      {"measurement": "T1/2e of HOL", "setting": "[1]", "value": "3.53 ± 2.19", "unit": "h"},
      {"measurement": "T1/2d of HOL", "setting": "[1]", "value": "2.05 ± 1.61", "unit": "h"},
      {"measurement": "Tmax of HOL", "setting": "[1]", "value": "0.229 ± 0.0589", "unit": "h"},
      {"measurement": "AUC(0-t) of HOL", "setting": "[2]", "value": "27.1 ± 10.8", "unit": "ng·h/mL"},
      {"measurement": "AUC(0-∞) of HOL", "setting": "[2]", "value": "29.6 ± 11.3", "unit": "ng·h/mL"},
      {"measurement": "Cmax of HOL", "setting": "[2]", "value": "10.4 ± 2.13", "unit": "ng/mL"},
      {"measurement": "Ka of HOL", "setting": "[2]", "value": "0.808 ± 1.28", "unit": "h⁻¹"},
      {"measurement": "Ke of HOL", "setting": "[2]", "value": "0.400 ± 0.133", "unit": "h⁻¹"},
      {"measurement": "MRT of HOL", "setting": "[2]", "value": "4.44 ± 1.78", "unit": "h"},
      {"measurement": "T1/2a of HOL", "setting": "[2]", "value": "2.22 ± 1.67", "unit": "h"},
      {"measurement": "T1/2e of HOL", "setting": "[2]", "value": "1.94 ± 0.712", "unit": "h"},
      {"measurement": "T1/2d of HOL", "setting": "[2]", "value": "1.89 ± 1.07", "unit": "h"},
      {"measurement": "Tmax of HOL", "setting": "[2]", "value": "0.198 ± 0.324", "unit": "h"},
      {"measurement": "AUC(0-t) of HOL", "setting": "[3]", "value": "158 ± 59.9 ^bbb ng*h/mL"},
      {"measurement": "AUC(0-∞) of HOL", "setting": "[3]", "value": "327 ± 140 ^bbb ng*h/mL"},
      {"measurement": "Cmax of HOL", "setting": "[3]", "value": "40.4 ± 10.9 ^bbb ng/mL"},
      {"measurement": "Ka of HOL", "setting": "[3]", "value": "0.864 ± 1.00", "unit": "h⁻¹"},
      {"measurement": "Ke of HOL", "setting": "[3]", "value": "0.0899 ± 0.0912 ^b /h"},
      {"measurement": "MRT of HOL", "setting": "[3]", "value": "23.5 ± 19.3 ^b h"},
      {"measurement": "T1/2a of HOL", "setting": "[3]", "value": "2.15 ± 2.05", "unit": "h"},
      {"measurement": "T1/2e of HOL", "setting": "[3]", "value": "17.2 ± 14.7 ^b h"},
      {"measurement": "T1/2d of HOL", "setting": "[3]", "value": "3.48 ± 4.35", "unit": "h"},
      {"measurement": "Tmax of HOL", "setting": "[3]", "value": "2.39 ± 3.52", "unit": "h"},
      {"measurement": "AUC(0-t) of HOL", "setting": "[4]", "value": "57.8 ± 19.3 ^aaa ng*h/mL"},
      {"measurement": "AUC(0-∞) of HOL", "setting": "[4]", "value": "69.7 ± 23.1 ^aaa ng*h/mL"},
      {"measurement": "Cmax of HOL", "setting": "[4]", "value": "32.4 ± 16.5 ^aa ng/mL"},
      {"measurement": "Ka of HOL", "setting": "[4]", "value": "1.17 ± 1.96", "unit": "h⁻¹"},
      {"measurement": "Ke of HOL", "setting": "[4]", "value": "0.226 ± 0.0896 ^aa /h"},
      {"measurement": "MRT of HOL", "setting": "[4]", "value": "6.04 ± 2.12", "unit": "h"},
      {"measurement": "T1/2a of HOL", "setting": "[4]", "value": "2.02 ± 1.52", "unit": "h"},
      {"measurement": "T1/2e of HOL", "setting": "[4]", "value": "3.57 ± 1.50 ^a h"},
      {"measurement": "T1/2d of HOL", "setting": "[4]", "value": "2.02 ± 1.72", "unit": "h"},
      {"measurement": "Tmax of HOL", "setting": "[4]", "value": "0.271 ± 0.159", "unit": "h"}
    ]}
  ]
}
